“And” between values parts separate entries of the source, which are not always exact repeats. Identical values can stand only once.
Tests used:
[1] = tested on: PC3 prostate carcinoma cells; assay type: cell-based, human; conditions: read-out: PC3 IC50, μM 3 h of treatm., cell adhesion to vitronectin, PC3 low levels of both integrins
Procedure: (§1) Adhesion Assay of Tumor Cells on Vitronectin
(§2) A2780 human ovarian carcinoma and PC3 prostate carcinoma cells were grown in RPMI 1640 containing 10% fetal bovine serum and 50 μg/ml gentamycin sulfate. A498 human renal carcinoma were grown in EMEM containing 10% fetal bovine serum and 50 μg/ml gentamycin sulfate. All the cells were maintained in a 37° C. incubator with saturated humidity and an atmosphere of 95% air and 5% CO2.
(§3) A2780 cell line expresses high levels of αvβ5 integrins, A498 high levels of αvβ3 integrins, and PC3 low levels of both integrins.
To test the effect of the drugs on cell adhesion, the appropriate cellular density (40000-50000 cells/well) for each tumor cell line was incubated with different concentrations of the compounds in 96-well tissue culture plates coated with vitronectin (5 μg/ml) and was allowed to attach for 3 hours. After this time the cells were washed once with PBS containing Ca^2+ e Mg^2+. Tumor cells were fixed with 4% paraformaldehyde for 10 min at room temperature and stained with 1% toluidine blue for 10 min at room temperature. […] The number of adherent cells was determined in a microplate reader (Victor2, EG&G Wallac) at 600 nm.
(§4) An IC50 value as parameter to measure the inhibiting effect of the molecules on tumor cell adhesion to vitronectin was evaluated using “ALLFIT” computer program.

purified αvβ5 receptor = target: T1, purified αvβ5 receptor (Homo sapiens, UniProt P06756+P18084); experiment: Binding to integrin αvβ5 receptors ([125I]echistatin competition); conditions: inhibition of [125I]echistatin 0.15 nM binding to purified αvβ5 receptor; read-out: αvβ5 IC50 ± SD
T1 construct: purchased Chemicon CC1020
Procedure: Binding to Integrin αvβ5 Receptors
(§5) An aliquot of 100 μl was added to 96-well plates and incubated overnight at +4° C. Plates were washed once with buffer (50 mM Tris, pH 7.4, 100 mM NaCl, 2 mM CaCl2, 1 mM MgCl2, 1 mM MnCl2, 1% bovine serum albumin) and then incubated for another 2 hours at room temperature. Plates were washed twice with the same buffer and incubated for 3 hours at room temperature with the radioactive ligand [^125I]echistatin (Amersham Pharmacia Biotech) 0.15 nM in the presence of competition ligands. At the end of incubation, the wells were washed and the radioactivity determined using a gamma counter (Packard). Non-specific ligand binding was determined in the presence of excess cold echistatin (1 μM).
(§6) Evaluation of IC50 Parameters
(§7) The IC50 parameter was elaborated using “ALLFIT” software.

[2] = tested on: A498 human renal carcinoma; assay type: cell-based; conditions: read-out: A498 IC50, μM 3 h of treatm., cell adhesion to vitronectin, A498 high levels of αvβ3 integrins
Procedure: as §1, §2, §3
(§8) To test the effect of the drugs on cell adhesion, the appropriate cellular density (40000-50000 cells/well) for each tumor cell line was incubated with different concentrations of the compounds in 96-well tissue culture plates coated with vitronectin (5 μg/ml) and was allowed to attach for 3 hours. After this time the cells were washed once with PBS containing Ca^2+ e Mg^2+. Tumor cells were fixed with 4% paraformaldehyde for 10 min at room temperature and stained with 1% toluidine blue for 10 min at room temperature. Tumor cells were washed with bi-distilled water, dried and solubilized with 1% SDS. The number of adherent cells was determined in a microplate reader (Victor2, EG&G Wallac) at 600 nm.
as §4

[3] = tested on: A2780 human ovarian carcinoma; assay type: cell-based; conditions: read-out: A2780 IC50, μM 3 h of treatm., cell adhesion to vitronectin, A2780 high levels of αvβ5 integrins
Procedure: as §1, §2, §3, §8, §4

purified αvβ3 receptor = target: T2, purified αvβ3 receptor (Homo sapiens, UniProt P05106+P06756); experiment: Binding to integrin αvβ3 receptors ([125I]echistatin competition); conditions: inhibition of [125I]echistatin 0.05 nM binding to purified αvβ3 receptor; read-out: αvβ3 IC50 ± SD
T2 construct: purchased Chemicon CC1020
Procedure: Binding to Integrin αvβ3 Receptors
as §5, with “0.05” for “0.15”, “Non-specific binding of the” for “Non-specific”, “ligand” for “ligand binding”
as §6, §7

SMILES | IC50 [1] [µM] | IC50 (purified αvβ5 receptor) [nM] | IC50 [2] [µM] | IC50 [3] [µM] | IC50 (purified αvβ3 receptor)
N=C(N)NCCC[C@@H]1NC(=O)[C@H](Cc2ccc(CNC(=O)CCC(=O)O)cc2)NC(=O)[C@@H](Cc2ccccc2)NC(=O)[C@H](CC(=O)O)NC(=O)CNC1=O [ST2649, c[Arg-Gly-Asp-D-Phe-Amp-(CH2)2COOH]] | 33.7 ± 7.8 | 5.1 ± 0.07 | 34 ± 2.2 | 9.5 ± 1.9 | 37.6 ± 0.9 nM
COCCOCCOCCOCC(=O)NCc1ccc(C[C@@H]2NC(=O)[C@@H](Cc3ccccc3)NC(=O)[C@H](CC(=O)O)NC(=O)CNC(=O)[C@H](CCCNC(=N)N)NC2=O)cc1 [ST2597, c[Arg-Gly-Asp-D-Phe-Amp(CO—CH2—(OCH2CH2)3—OCH3)]] |  | 2.1 ± 0.07 |  |  | 13.5 ± 0.8 nM
N=C(N)NCCC[C@@H]1NC(=O)[C@H](Cc2ccc(CNC(=O)COCCOCCOCC(=O)O)cc2)NC(=O)[C@@H](Cc2ccccc2)NC(=O)[C@H](CC(=O)O)NC(=O)CNC1=O [ST2661, c[Arg-Gly-Asp-D-Phe-Amp-(CO—CH2—(O—CH2—CH2)2—O—CH2—COOH]] | 18.8 ± 4.4 |  | 10.7 ± 0.4 | 12.3 ± 0.9 | 
CN1C(=O)[C@@H](Cc2ccccc2)NC(=O)[C@H](CC(=O)O)NC(=O)CNC(=O)[C@H](CCCNC(=N)N)NC(=O)[C@@H]1Cc1ccc(CN)cc1 [ST2700, c(Arg-Gly-Asp-D-Phe-N-Me-Amp)] |  | 0.99 |  |  | 7 nM and 7.2 nM
C=CCOC(=O)CCCCCN1C(=O)[C@@H](Cc2ccccc2)NC(=O)[C@H](CC(=O)O)NC(=O)CNC(=O)[C@H](CCCNC(=N)N)NC(=O)[C@@H]1C(C)C [ST2957, c[Arg-Gly-Asp-D-Phe-N(allyloxycarbonylpentilene)-Val]] |  | 38.3 ± 1.3 |  |  | 42.2 ± 0.7 nM
N=C(N)NCCC[C@@H]1NC(=O)CN(Cc2ccc(CN)cc2)C(=O)[C@@H](Cc2ccccc2)NC(=O)[C@H](CC(=O)O)NC(=O)CNC1=O [ST2701, c(Arg-Gly-Asp-D-Phe-N-Amb-Gly)] |  | 2.9 ± 0.1 |  |  | 36.7 ± 0.7 nM
CC(C)[C@H]1C(=O)N[C@@H](CCCNC(=N)N)C(=O)NCC(=O)N[C@@H](CC(=O)O)C(=O)N[C@H](Cc2ccccc2)C(=O)N1CCCCCC(=O)O [ST2956, c[Arg-Gly-Asp-D-Phe-N(carboxypentilene)-Val)]] |  | 34 ± 1.4 |  |  | 30 ± 0.9 nM
N=C(N)NCCC[C@@H]1NC(=O)[C@H](Cc2ccc(CN)cc2)NC(=O)[C@@H](Cc2ccccc2)NC(=O)[C@H](CC(=O)O)NC(=O)CNC1=O [ST2581, c(Arg-Gly-Asp-D-Phe-Amp)] |  | 3.4 ± 0.1 |  |  | 1.7 nM
